How the values were obtained:
[1] = Molar enthalpy of transition or fusion; conditions: Crystal; DSC
[2] = molar enthalpy of vaporization or sublimation; conditions: 298.15 K; Crystal; Static calorimetry
[3] = for vapor or sublimation pressure: Liquid, Closed cell (Static) method

CN(C)c1cccc2cccc(N(C)C)c12 [1,8-bis(dimethylamino)naphthalene]
Conditions | Molar enthalpy of transition or fusion [kcal/mol] | molar enthalpy [kcal/mol]
[1] | 4.18 | –
[2] | – | 22.4

[3]
Conditions | vapor or sublimation pressure [kPa]
322.96 K | 0.00189
327.93 K | 0.00285
332.9 K | 0.00428
337.88 K | 0.00638
342.85 K | 0.00921
347.82 K | 0.01325
352.78 K | 0.01867
357.73 K | 0.02622
362.69 K | 0.03643
367.65 K | 0.0494
372.6 K | 0.06696
377.55 K | 0.08952
382.51 K | 0.1184

Conditions | Triple point temperature [K]
[3], Crystal, DTA | 322.2
